Test system: bone marrow stromal cells (BMSCs)
Assay: Transwell migration assay of BMSCs
Assay type: cell-based, mouse
Protocol: The macrophage culture, co-cultures with apoptosis mimicking structures, and co-cultures with the control microspheres were also used in transwell assays to determine in vitro bone marrow stromal cell migration. Bone marrow stromal cells (BMSCs) were derived from bone marrow flush, and were cultured in α-MEM medium (20% FBS, Pen/Strep, glutamine) for one time (passage) after isolation.
Cell migration was assessed in 24-well plate transwells (Corning, Inc.) with a diameter of 6.5 mm and a pore size of 8 μm coated with 0.2 mg/mL collagen type I (EMD Millipore). BMSCs were placed in the upper chambers. Conditioned media from the macrophage culture, the co-cultures, or α-MEM medium (a negative control) containing CCL-2 protein and 0.2% FBS were added to the lower chambers. After 8 hours, cells were fixed with 2.5% glutaraldehyde for 15 minutes. Cells which remained on top of transwell membranes were removed with cotton swabs. Cells that had migrated through the pores to the lower surface were stained with Gill's Hematoxylin (Sigma-Aldrich). Four fields at 200× magnification were selected at random, photo micrographic images were obtained (shown in FIG. 15C), and the cells in each image were counted (results shown in FIG. 15D).
Different concentrations of recombinant CCL-2 were also examined for increasing BMSC migration.

## CCL-2: recombinant C-C motif chemokine ligand 2 protein
Concentration of 10 ng/ml
  increase of BMSCs migration compared with the control medium: about 70%
Concentration up to 100 ng/ml
  further increase in BMSCs migration: did not cause further increase

From US12544393B2, “Apoptosis-mimicking structures for inducing tissue regeneration” (THE REGENTS OF THE UNIVERSITY OF MICHIGAN, priority 2017, dated 2026)
